Measurements: PubChem BioAssay (NCI)
“And” between values parts separate entries of the source, which are not always exact repeats. Equal values may be shown once.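 Five concentrations, 48 hours, 96-well plates. The concentration for 50% growth inhibition is given as GI50. TGI: total growth inhibition.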

Key:
Assay in all cases: NCI tumour cell line growth inhibition, 48 h
SW-620 colon = test system: SW-620 colon
SK-MEL-28 melanoma = test system: SK-MEL-28 melanoma
KM20L2 colon = test system: KM20L2 colon
UACC-62 melanoma = test system: UACC-62 melanoma
HOP-62 NSCLC = test system: HOP-62 NSCLC
LOX IMVI melanoma = test system: LOX IMVI melanoma
CAKI-1 renal = test system: CAKI-1 renal
NCI-H226 lung = test system: NCI-H226 lung
NCI-H460 lung = test system: NCI-H460 lung
HOP-92 NSCLC = test system: HOP-92 NSCLC

SMILES	TGI (SW-620 colon)	TGI (SK-MEL-28 melanoma)	TGI (KM20L2 colon)	TGI (UACC-62 melanoma)	TGI (HOP-62 NSCLC)	TGI (LOX IMVI melanoma)	TGI (CAKI-1 renal)	TGI (NCI-H226 lung)	TGI (NCI-H460 lung)	TGI (HOP-92 NSCLC)	GI50 (SW-620 colon)	GI50 (NCI-H226 lung)	GI50 (SK-MEL-28 melanoma)	GI50 (KM20L2 colon)	GI50 (UACC-62 melanoma)	GI50 (HOP-62 NSCLC)	GI50 (LOX IMVI melanoma)	GI50 (NCI-H460 lung)	GI50 (CAKI-1 renal)	GI50 (HOP-92 NSCLC)
CC(C)N(C(=O)C12C3C4C1C1C2C3C41C(=O)C(C)(C)C)C(C)C (configuration not stated)	> 100 µM	> 100 µM	> 100 µM	> 100 µM	> 100 µM	> 100 µM	> 100 µM	–	–	–	–	–	–	–	–	–	–	–	–	–
N#CCCN(CCC#N)c1ccc(/C=C(/NC(=O)c2cc([N+](=O)[O-])ccc2Cl)C(=O)N=[N+]=[N-])cc1	> 100 µM	> 100 µM	> 100 µM	> 100 µM	> 100 µM	> 100 µM	> 100 µM	> 100 µM	> 100 µM	–	–	–	–	–	–	–	–	–	–	–
C/C(NNC(=O)c1ccccc1O)=C1\C=Nc2ccccc2S1	> 100 µM	> 100 µM	> 100 µM	9.61 µM	> 100 µM	> 100 µM	> 100 µM	33.1 µM	24.7 µM	–	–	–	–	–	–	–	–	–	–	–
CC1CC(C[N+](=O)[O-])CC2(C1)OCCO2 (configuration not stated)	> 100 µM	> 100 µM	> 100 µM	> 100 µM	> 100 µM	–	> 100 µM	> 100 µM	> 100 µM	–	–	–	–	–	–	–	–	–	–	–
CC(=O)NNc1nc(C)c(C(=O)NNC(=O)C(=O)Nc2ccc(Cl)c([N+](=O)[O-])c2)s1	> 100 µM	> 100 µM	> 100 µM	> 100 µM	> 100 µM	> 100 µM	> 100 µM	> 100 µM	> 100 µM	> 100 µM	–	–	–	–	–	–	–	–	–	–
CCOC(=O)c1oc2c(OC)ccc3c2c1CCC3	> 100 µM	> 100 µM	> 100 µM	> 100 µM	> 100 µM	> 100 µM	–	–	> 100 µM	> 100 µM	–	–	–	–	–	–	–	–	–	–
NC1=NN(c2ccccc2)C(=O)C1C(=O)C(=O)Nc1ccc(Cl)cc1 (configuration not stated)	> 100 µM	> 100 µM	> 100 µM	> 100 µM	> 100 µM	> 100 µM	> 100 µM	> 100 µM	> 100 µM	> 100 µM	–	–	–	–	–	–	–	–	–	–
CCCCCCCCSC(=O)NCCCC	> 100 µM	88.7 µM	62.5 µM	> 100 µM	–	40.2 µM	> 100 µM	–	> 100 µM	53.9 µM	–	–	–	–	–	–	–	–	–	–
CC12Nc3ccccc3C1=C(c1ccccc1)CC1C(=O)OC(=O)C12 (configuration not stated)	> 100 µM	> 100 µM	> 100 µM	> 100 µM	> 100 µM	> 100 µM	–	–	> 100 µM	> 100 µM	–	–	–	–	–	–	–	–	–	–
C[C@H]1CCC/C=C/C2CC(OC(=O)CN(C)C)CC2C(OC(=O)CN(C)C)/C=C/C(=O)O1 (some centres not stated)	1.95 µM	> 100 µM	0.979 µM	> 65.4 µM	23.2 µM	2.67 µM	7.69 µM	0.44 µM	31.2 µM	12.5 µM	0.318 µM	0.133 µM	0.472 µM	0.266 µM	0.443 µM	2.51 µM	1.16 µM	1.09 µM	0.38 µM	1.69 µM
O=C(NCCCCCCCCCCCCNC(=O)c1cnc2ccccc2n1)c1cnc2ccccc2n1	> 100 µM	> 100 µM	> 100 µM	> 100 µM	> 100 µM	> 100 µM	> 100 µM	> 100 µM	> 100 µM	–	–	–	–	–	–	–	–	–	–	–
O=C1C=CC2(CCCCCCC2=O)CC1 (configuration not stated)	> 100 µM	> 100 µM	> 100 µM	> 100 µM	> 100 µM	> 100 µM	> 100 µM	> 100 µM	> 100 µM	> 100 µM	–	–	–	–	–	–	–	–	–	–
CC(=O)OC1C[C@H]2C(OC(=O)c3ccccc3)C3C4(OC(C)=O)COC4C[C@H](OC(C)=O)[C@@]3(C)C(OC(C)=O)[C@H](OC(C)=O)C(=C1C)C2(C)C (some centres not stated)	> 100 µM	> 100 µM	> 100 µM	> 100 µM	> 100 µM	> 100 µM	31.4 µM	> 100 µM	> 100 µM	–	–	–	–	–	–	–	–	–	–	–
Cc1ccccc1/C=C/c1csnn1	> 79.9 µM	> 100 µM	> 100 µM	> 100 µM	> 100 µM	> 100 µM	> 100 µM	> 100 µM	> 75.6 µM	> 100 µM	–	–	–	–	–	–	–	–	–	–
O/N=C1/CCCC/C1=C/C=C/c1ccccc1	77.1 µM	10.2 µM	33.3 µM	40.8 µM	–	31.3 µM	> 100 µM	60.7 µM	53.8 µM	36.7 µM	–	–	–	–	–	–	–	–	–	–
O=C(CCC(=O)Nc1ccccc1C(F)(F)F)N/N=C1\C(=N\NC(=O)CCC(=O)Nc2ccccc2C(F)(F)F)C(c2ccc3c(c2)OCO3)Oc2ccccc21 (configuration not stated)	> 100 µM	> 100 µM	> 100 µM	> 100 µM	56.3 µM	> 100 µM	98 µM	> 100 µM	> 100 µM	> 87.1 µM	–	–	–	–	–	–	–	–	–	–
Cc1ccccc1NC(=O)CC1C(=O)Nc2ccccc2S1=O (configuration not stated)	> 100 µM	> 100 µM	> 100 µM	> 100 µM	–	> 100 µM	> 100 µM	> 100 µM	> 100 µM	> 100 µM	–	–	–	–	–	–	–	–	–	–
O=C1c2c(O)cccc2C(C(=O)CCCCCC(=O)C2c3cccc(O)c3C(=O)c3c(O)cccc32)c2cccc(O)c21	25 µM and 14.5 µM	4.63 µM and 14.8 µM	13.1 µM and 47.6 µM	5.26 µM and 9.46 µM	6.96 µM and 16.9 µM	8.85 µM and 7.1 µM	10.2 µM and 19.9 µM	7.29 µM and 11.6 µM	1.62 µM and 5.23 µM	16.8 µM	5.44 µM	4.97 µM	7.4 µM	15.4 µM	2.22 µM	5.45 µM	1.95 µM	1.57 µM	10.6 µM	–
Cc1cc(=O)oc2c(C3=NN(C=O)C(c4ccccc4)C3)c(O)ccc12 (configuration not stated)	> 100 µM	> 100 µM	> 100 µM	> 100 µM	91.4 µM	> 100 µM	> 94.9 µM	> 100 µM	> 100 µM	74.5 µM	–	–	–	–	–	–	–	–	–	–
